1 molecule from US6387849B1, “Herbicidal hydroximic acid derivatives” (BASF Aktiengesellschaft, priority 1997, dated 2002) can be followed below.

The term melting point denotes the temperature, or range, at which the solid turns liquid. As for `CO/N=C(\OC)c1cc(-n2c(=O)cc(C(F)(F)F)n(C)c2=O)c(F)cc1Cl` [Compound 4.01, 3-[2-fluoro-4-chloro-5-methoxyimino-(methoxy)methylphenyl]-2,4-dioxo-1-methyl-6-trifluoromethyl-1,2,3,4-tetrahydropyrimidine], the melting point lay in the range of 122 to 124 °C.
